Measurements: paper PMC8817233 (Journal of medicinal chemistry, 2021)
“Also recorded” adds a separate entry of the source.

Legend:
BCL9 HD2 (Homo sapiens) = BCL9 HD2 (Homo sapiens) (UniProt O00512); conditions: cited from earlier work
β-catenin/BCL9 PPI = biological target: T1, β-catenin/BCL9 PPI (Homo sapiens, UniProt P35222); assay: AlphaScreen competitive inhibition assay of the β-catenin/BCL9 PPI; assay type: binding; conditions: for fold less potent than ZW4864 (β-catenin/BCL9 Ki): compared with ZW4864
T1 sequence (P35222 1-781): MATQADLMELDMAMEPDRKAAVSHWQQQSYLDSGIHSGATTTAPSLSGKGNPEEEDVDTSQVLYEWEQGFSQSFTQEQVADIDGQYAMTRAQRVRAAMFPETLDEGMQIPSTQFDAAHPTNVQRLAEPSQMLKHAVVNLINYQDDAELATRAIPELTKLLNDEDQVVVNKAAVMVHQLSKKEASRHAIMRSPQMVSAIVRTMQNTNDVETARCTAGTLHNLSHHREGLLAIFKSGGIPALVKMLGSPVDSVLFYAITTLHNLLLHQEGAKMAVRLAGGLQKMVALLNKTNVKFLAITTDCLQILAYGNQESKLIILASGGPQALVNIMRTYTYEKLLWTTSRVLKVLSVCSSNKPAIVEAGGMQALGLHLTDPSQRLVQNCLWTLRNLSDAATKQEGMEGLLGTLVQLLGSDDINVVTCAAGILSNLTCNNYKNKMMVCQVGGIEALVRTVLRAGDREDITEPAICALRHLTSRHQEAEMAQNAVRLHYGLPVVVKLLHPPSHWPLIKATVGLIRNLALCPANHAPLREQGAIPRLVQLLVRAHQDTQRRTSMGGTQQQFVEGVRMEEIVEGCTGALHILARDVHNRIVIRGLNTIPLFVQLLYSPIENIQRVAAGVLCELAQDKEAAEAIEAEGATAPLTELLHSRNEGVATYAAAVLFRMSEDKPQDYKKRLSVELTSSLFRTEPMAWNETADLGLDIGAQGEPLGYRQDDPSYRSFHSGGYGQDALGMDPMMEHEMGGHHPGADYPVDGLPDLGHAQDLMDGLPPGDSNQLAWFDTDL

[1] = test system: β-catenin-expressing HEK293 cells; assay: TOPFlash luciferase reporter assay, HEK293; assay type: cell-based; conditions: 200 μM, 24 h
[2] = biological target: T2, purified full-length β-catenin (Homo sapiens, UniProt P35222); assay: Streptavidin pull-down with purified protein; assay type: binding; conditions: Western blot, from 1 μM
T2 sequence (P35222 1-781): T1 sequence (P35222 1-781)

[3] = biological target: T3, β-catenin in SW480 cell lysates (Homo sapiens, UniProt P35222); assay: Streptavidin pull-down from cell lysates; assay type: binding; conditions: 10 μM
T3 sequence (P35222 1-781): T1 sequence (P35222 1-781)

[4] = biological target: T4, β-catenin R1C (residues 138–781) (Homo sapiens, UniProt P35222); assay: Streptavidin pull-down with β-catenin truncate; assay type: binding
T4 sequence (P35222 138-781): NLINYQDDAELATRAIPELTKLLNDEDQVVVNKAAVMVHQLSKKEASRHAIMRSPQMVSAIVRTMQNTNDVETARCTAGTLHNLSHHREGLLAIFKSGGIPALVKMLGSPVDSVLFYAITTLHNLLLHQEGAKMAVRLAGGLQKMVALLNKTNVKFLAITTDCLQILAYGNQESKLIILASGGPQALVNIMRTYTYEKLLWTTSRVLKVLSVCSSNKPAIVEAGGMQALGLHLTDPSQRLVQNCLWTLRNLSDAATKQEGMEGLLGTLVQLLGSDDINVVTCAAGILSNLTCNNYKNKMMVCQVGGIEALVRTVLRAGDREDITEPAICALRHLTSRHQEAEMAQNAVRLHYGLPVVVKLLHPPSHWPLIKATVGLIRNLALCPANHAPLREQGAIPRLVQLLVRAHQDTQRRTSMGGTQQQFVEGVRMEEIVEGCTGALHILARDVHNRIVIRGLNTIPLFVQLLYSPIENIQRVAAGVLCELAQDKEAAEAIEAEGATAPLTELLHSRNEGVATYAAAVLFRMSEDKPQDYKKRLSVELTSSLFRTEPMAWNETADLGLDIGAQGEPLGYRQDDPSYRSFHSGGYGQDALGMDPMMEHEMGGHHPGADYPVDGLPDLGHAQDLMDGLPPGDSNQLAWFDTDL

[5] = Hepatic microsome stability, mouse; assay type: in vitro ADME; conditions: liver microsomes, pH 7.4
[6] = Hepatic microsome stability, human; assay type: in vitro ADME; conditions: liver microsomes, pH 7.4
TNBC cells = assay: Clonogenic assay; assay type: cell-based
MDA-MB-231 cells [7] = assay: Scratch wound healing assay; assay type: cell-based; conditions: 10% serum, mitomycin 10 μg/mL
PDX 4013 tumors = assay: PDX 4013 TNBC xenograft, tumor growth and tolerability; conditions: 90 mg/kg orally daily in saline, 5 days
[8] = test system: normal mammary epithelial MCF10A cells; assay: FACS annexin V/PI apoptosis, normal cells; assay type: cell-based, human; conditions: 72 h treatment
Mouse PK study = assay type: in vivo, C57BL/6 mice; conditions: p.o., 20 mg/kg
MDA-MB-231 cells [9] = assay: 3D spheroid BME cell invasion assay; assay type: cell-based; conditions: day 6
[10] = test system: Axin2 and cyclin D1 in SW480 and Wnt 3a-activated MDA-MB-231 cells; assay: Western blot of Wnt target proteins; assay type: cell-based, human; conditions: SW480 and Wnt 3a-activated MDA-MB-231, 24 h

Chain of BCL9 HD2 (Homo sapiens) (O00512 351-374): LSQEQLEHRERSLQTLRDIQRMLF

Molecule: beta-catenin (from UniProt P35222)
- Kd (BCL9 HD2 (Homo sapiens)): 470 nM

Molecule: CC(C)c1ccc(CN(C(=O)[C@@H]2CCCN(c3cccc(OC(C)(C)C(=O)N4CCNCC4)c3)C2)C2CC2)cc1.Cl [compound 7, (R)-N-Cyclopropyl-N-(4-isopropylbenzyl)-1-(3-((2-methyl-1-oxo-1-(piperazin-1-yl)propan-2-yl)oxy)phenyl)piperidine-3-carboxamide]
- fold more potent than 3 (β-catenin/BCL9 Ki) (β-catenin/BCL9 PPI; compared with 3): 2 fold

Molecule: CC(C)(Oc1cccc(N2CCC[C@@H](C(=O)N(Cc3ccc(-c4ccn[nH]4)cc3)C3CC3)C2)c1)C(=O)N1CCNCC1.Cl [compound 17, (R)-N-(4-(1H-Pyrazol-5-yl)benzyl)-N-cyclopropyl-1-(3-((2-methyl-1-oxo-1-(piperazin-1-yl)propan-2-yl)oxy)phenyl)piperidine-3-carboxamide]
- fold less potent than ZW4864 (β-catenin/BCL9 Ki) (β-catenin/BCL9 PPI): 10 fold

Molecule: CN1CCN(C(=O)C(C)(C)Oc2cccc(N3CCC[C@@H](C(=O)N(Cc4ccc(-c5cn[nH]c5)cc4)C4CC4)C3)c2)CC1 [compound 19, (R)-N-(4-(1H-Pyrazol-4-yl)benzyl)-N-cyclopropyl-1-(3-((2-methyl-1-(4-methylpiperazin-1-yl)-1-oxopropan-2-yl)oxy)phenyl)piperidine-3-carboxamide]
- TOPFlash luciferase activity, in words [1]: did not show any activity

Molecule: CC(C)(Oc1cccc(N2CCC[C@@H](C(=O)N(CCOCCOCCNC(=O)CCCC[C@@H]3SC[C@@H]4NC(=O)N[C@@H]43)Cc3ccc(-c4cn[nH]c4)cc3)C2)c1)C(=O)N1CCNCC1 [Biotin-ZW4864, (R)-N-(4-(1H-Pyrazol-4-yl)benzyl)-1-(3-((2-methyl-1-oxo-1-(piperazin-1-yl)propan-2-yl)oxy)phenyl)-N-(2-(2-(2-(5-((3aS,4S,6aR)-2-oxohexahydro-1H-thieno[3,4-d]imidazol-4-yl)pentanamido)ethoxy)ethoxy)ethyl)piperidine-3-carboxamide]
- pull-down of purified full-length β-catenin [2]: bound with the purified full-length β-catenin in a concentration-dependent manner starting at 1 μM; also recorded: pulled down the full-length β-catenin at 1 μM
- binding to β-catenin in SW480 cell lysates [3]: effectively bind with β-catenin in SW480 cell lysates
- pull-down of β-catenin R1C ([4]; 10 μM): did not pull down β-catenin R1C
- pull-down of β-catenin R1C ([4]; 50 μM): pulled down β-catenin R1C

Molecule: Cl.Cn1cc(-c2ccc(CN(C(=O)[C@@H]3CCCN(c4cccc(OC(C)(C)C(=O)N5CCNCC5)c4)C3)C3CC3)cc2)cn1 [compound 18, (R)-N-Cyclopropyl-1-(3-((2-methyl-1-oxo-1-(piperazin-1-yl)propan-2-yl)oxy)phenyl)-N-(4-(1-methyl-1H-pyrazol-4-yl)benzyl)piperidine-3-carboxamide]
- fold less potent than ZW4864 (β-catenin/BCL9 Ki) (β-catenin/BCL9 PPI): 89 fold

Molecule: CCOCCN(Cc1ccc(-c2cn[nH]c2)cc1)C(=O)[C@@H]1CCCN(c2cccc(OC(C)(C)C(=O)N3CCNCC3)c2)C1.Cl [compound 22, (R)-N-(4-(1H-Pyrazol-4-yl)benzyl)-N-(2-ethoxyethyl)-1-(3-((2-methyl-1-oxo-1-(piperazin-1-yl)propan-2-yl)oxy)phenyl)piperidine-3-carboxamide]
- inhibitory affinity for β-catenin/BCL9 PPI, in words (β-catenin/BCL9 PPI; AlphaScreen, values only in Figure 2B): maintained low μM inhibitory affinities

Molecule: CCN(Cc1ccc(-c2cn[nH]c2)cc1)C(=O)[C@@H]1CCCN(c2cccc(OC(C)(C)C(=O)N3CCNCC3)c2)C1.Cl [compound 21, (R)-N-(4-(1H-Pyrazol-4-yl)benzyl)-N-ethyl-1-(3-((2-methyl-1-oxo-1-(piperazin-1-yl)propan-2-yl)oxy)phenyl)piperidine-3-carboxamide]
- half-life at 1 μM [5]: 7.7 min
- microsomal CLint at 1 μM [6]: 24 µL/min/mg

Molecule: CC(C)(Oc1cccc(N2CCC[C@@H](C(=O)N(Cc3ccc(-c4cn[nH]c4)cc3)C3CC3)C2)c1)C(=O)N1CCNCC1.Cl [ZW4864, (R)-N-(4-(1H-Pyrazol-4-yl)benzyl)-N-cyclopropyl-1-(3-((2-methyl-1-oxo-1-(piperazin-1-yl)propan-2-yl)oxy)phenyl)piperidine-3-carboxamide]
- half-life at 1 μM [5]: 9.6 min
- colony formation (TNBC cells): inhibited colony formation
- MDA-MB-231 cell migration (MDA-MB-231 cells [7]): suppressed MDA-MB-231 cell migration in a dose-dependent manner
- body weight and toxicity (PDX 4013 tumors): no significant decrease in weight or major toxicity issues
- tumor growth compared with vehicle (PDX 4013 tumors): a variation in tumor growth
- apoptosis (FACS annexin V/PI) [8]: sparing normal mammary epithelial MCF10A cells
- microsomal CLint at 1 μM [6]: 18 µL/min/mg
- CL (Mouse PK study): 51.10 mL/min/kg
- 3D spheroid cell invasion (MDA-MB-231 cells [9]): suppressed MDA-MB-231 cell invasion in a dose-dependent manner
- expression of proteins Axin2 and cyclin D1 (Western blot) [10]: substantially decreased
